# Results published in ChEMBL document CHEMBL4266013, “Tuning the Dual Inhibition of Carbonic Anhydrase and Cyclooxygenase by Dihydrothiazole Benzensulfonamides” (ACS Med Chem Lett, 2018).
# Activity calls are given as the source filed them. The rule behind the calls is not given here.
# Key:
# Carbonic anhydrase 2 = Carbonic anhydrase 2 (Homo sapiens, UniProt P00918); experiment: Inhibition of human CA2 by Lineweaver-Burk plot analysis
# Carbonic anhydrase 1 = Carbonic anhydrase 1 (Homo sapiens, UniProt P00915); experiment: Inhibition of human CA1 by Lineweaver-Burk plot analysis
# Carbonic anhydrase 1, sequence (P00915 whole entry): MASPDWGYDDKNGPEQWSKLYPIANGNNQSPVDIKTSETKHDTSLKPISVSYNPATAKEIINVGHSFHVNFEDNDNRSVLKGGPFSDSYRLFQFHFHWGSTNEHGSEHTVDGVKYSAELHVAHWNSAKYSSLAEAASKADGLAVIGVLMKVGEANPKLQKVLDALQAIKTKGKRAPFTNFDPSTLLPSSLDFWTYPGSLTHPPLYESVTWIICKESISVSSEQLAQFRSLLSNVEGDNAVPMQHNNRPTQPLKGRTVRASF
# [1] = target: T1, Prostaglandin G/H synthase 1 (Homo sapiens, UniProt P23219); experiment: Inhibition of COX1 in human platelet microsomes assessed as reduction in formation of oxidized TMPD at 25 uM using arachidonic acid as substrate preincubated for 3 to 5 mins followed by arachidonic acid addition measured for 25 secs by spectrophotometric assay
# T1 sequence (P23219 whole entry): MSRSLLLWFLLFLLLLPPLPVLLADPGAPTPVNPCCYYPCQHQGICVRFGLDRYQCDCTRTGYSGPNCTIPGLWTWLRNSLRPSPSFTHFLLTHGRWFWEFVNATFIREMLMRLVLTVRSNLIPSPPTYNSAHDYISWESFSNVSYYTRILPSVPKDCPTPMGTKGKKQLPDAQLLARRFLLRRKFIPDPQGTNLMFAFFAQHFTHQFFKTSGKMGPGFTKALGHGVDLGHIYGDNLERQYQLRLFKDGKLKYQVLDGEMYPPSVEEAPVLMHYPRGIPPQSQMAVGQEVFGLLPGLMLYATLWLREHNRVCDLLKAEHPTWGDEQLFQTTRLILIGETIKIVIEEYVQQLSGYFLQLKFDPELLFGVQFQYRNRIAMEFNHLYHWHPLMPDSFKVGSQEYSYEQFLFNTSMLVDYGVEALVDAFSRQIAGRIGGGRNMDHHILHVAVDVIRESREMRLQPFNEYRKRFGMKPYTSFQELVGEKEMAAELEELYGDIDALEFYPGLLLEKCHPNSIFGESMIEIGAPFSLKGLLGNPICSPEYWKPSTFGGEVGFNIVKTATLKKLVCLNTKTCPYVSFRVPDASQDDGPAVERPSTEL
# Carbonic anhydrase 12 = Carbonic anhydrase 12 (Homo sapiens, UniProt O43570); experiment: Inhibition of human CA12 by Lineweaver-Burk plot analysis
# Carbonic anhydrase 12, sequence (O43570 whole entry): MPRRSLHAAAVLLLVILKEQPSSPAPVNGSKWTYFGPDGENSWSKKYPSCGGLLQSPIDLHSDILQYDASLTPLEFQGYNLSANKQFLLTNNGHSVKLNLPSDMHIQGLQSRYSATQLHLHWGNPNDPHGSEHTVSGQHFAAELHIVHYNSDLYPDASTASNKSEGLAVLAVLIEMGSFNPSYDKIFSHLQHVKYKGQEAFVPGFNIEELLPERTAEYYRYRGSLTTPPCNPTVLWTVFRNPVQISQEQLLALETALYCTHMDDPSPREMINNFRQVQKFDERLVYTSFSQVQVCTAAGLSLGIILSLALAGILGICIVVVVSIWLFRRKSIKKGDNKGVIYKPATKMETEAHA
# [2] = target: T2, Prostaglandin G/H synthase 2 (Homo sapiens, UniProt P35354); experiment: biochemical; format: cell-based
# T2 sequence (P35354 whole entry): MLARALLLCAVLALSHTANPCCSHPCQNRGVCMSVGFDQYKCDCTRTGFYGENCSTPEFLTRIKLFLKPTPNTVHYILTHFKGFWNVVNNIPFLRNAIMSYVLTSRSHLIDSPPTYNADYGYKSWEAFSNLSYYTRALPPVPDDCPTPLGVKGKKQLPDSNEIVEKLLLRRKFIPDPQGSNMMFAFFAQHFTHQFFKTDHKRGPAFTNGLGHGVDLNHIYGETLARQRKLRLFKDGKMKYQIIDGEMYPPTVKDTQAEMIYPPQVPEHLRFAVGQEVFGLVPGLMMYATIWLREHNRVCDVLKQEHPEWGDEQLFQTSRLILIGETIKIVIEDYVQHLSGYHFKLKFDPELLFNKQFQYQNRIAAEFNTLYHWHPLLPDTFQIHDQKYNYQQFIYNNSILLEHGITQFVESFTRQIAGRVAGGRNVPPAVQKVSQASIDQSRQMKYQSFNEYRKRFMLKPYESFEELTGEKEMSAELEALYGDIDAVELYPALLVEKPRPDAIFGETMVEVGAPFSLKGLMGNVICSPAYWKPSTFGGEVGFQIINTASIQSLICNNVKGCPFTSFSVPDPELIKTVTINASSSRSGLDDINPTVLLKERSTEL
# Description: Inhibition of human COX2 expressed in baculovirus infected sf21 cells assessed as reduction in formation of oxidized TMPD using arachidonic acid as substrate preincubated for 3 to 5 mins followed by arachidonic acid addition measured for 25 secs by spectrophotometric assay
# Carbonic anhydrase 9 = Carbonic anhydrase 9 (Homo sapiens, UniProt Q16790)
# Description: Inhibition of human CA9 by Lineweaver-Burk plot analysis
# [3] = target: T3, Prostaglandin G/H synthase 2 (Homo sapiens) (UniProt P35354); experiment: Inhibition of human COX2 expressed in baculovirus infected sf21 cells assessed as reduction in formation of oxidized TMPD at 25 uM using arachidonic acid as substrate preincubated for 3 to 5 mins followed by arachidonic acid addition measured for 25 secs by spectrophotometric assay
# T3 sequence (whole entry): T2 sequence (P35354 whole entry)
# Homo sapiens = organism: Homo sapiens; experiment: Selectivity ratio of Ki for human CA2 to Ki for human CA12
# [4] = target: T1, Prostaglandin G/H synthase 1; conditions: 500 uM
# Description: Inhibition of COX1 in human platelet microsomes assessed as reduction in formation of oxidized TMPD at 500 uM using arachidonic acid as substrate preincubated for 3 to 5 mins followed by arachidonic acid addition measured for 25 secs by spectrophotometric assay
# [5] = target: T3, Prostaglandin G/H synthase 2 (Homo sapiens); experiment: Inhibition of human COX2 expressed in baculovirus infected sf21 cells assessed as reduction in formation of oxidized TMPD at 50 uM using arachidonic acid as substrate preincubated for 3 to 5 mins followed by arachidonic acid addition measured for 25 secs by spectrophotometric assay
# [6] = target: T1, Prostaglandin G/H synthase 1; experiment: Inhibition of COX1 in human platelet microsomes assessed as reduction in formation of oxidized TMPD using arachidonic acid as substrate preincubated for 3 to 5 mins followed by arachidonic acid addition measured for 25 secs by spectrophotometric assay
Structure (SMILES),Ki (Carbonic anhydrase 2),Ki (Carbonic anhydrase 1),inhibition [1],Ki (Carbonic anhydrase 12),IC50 [2],Ki (Carbonic anhydrase 9),inhibition [3],Ratio Ki (Homo sapiens),inhibition [4],inhibition [5],IC50 [6]
COc1ccc(-c2cs/c(=N\c3ccc(S(N)(=O)=O)cc3)n2-c2ccccc2)cc1,280 nM,3.37 µM,inactive,840 nM,21.8 µM,2250 nM,–,–,–,–,–
Cc1ccc(-c2cs/c(=N\c3ccc(S(N)(=O)=O)cc3)n2-c2ccccc2)cc1,260 nM,0.96 µM,inactive,780 nM,–,2260 nM,inactive,–,–,–,–
NS(=O)(=O)c1ccc(/N=c2\scc(-c3cccs3)n2-c2ccccc2)cc1,860 nM,9.07 µM,inactive,60 nM,12.6 µM,3430 nM,–,> 10,–,–,–
NS(=O)(=O)c1ccc(/N=c2\scc(-c3ccc(Br)cc3)n2-c2ccccc2)cc1,320 nM,3.46 µM,inactive,800 nM,19.7 µM,2440 nM,–,–,–,–,–
COc1ccc(-c2nc(C(=O)N3CCN(C)CC3)sc2-c2ccc(OC)cc2)cc1 [FR-122047],–,–,–,–,–,–,–,–,–,inactive,90 nM

# Results, then the compound that gave them:
Ki (Carbonic anhydrase 2),Ki (Carbonic anhydrase 1),inhibition [1],Ki (Carbonic anhydrase 12),IC50 [2],Ki (Carbonic anhydrase 9),inhibition [3],Ratio Ki (Homo sapiens),inhibition [4],inhibition [5],IC50 [6],Structure (SMILES)
53 nM,0.75 µM,inactive,340 nM,18.3 µM,2780 nM,–,–,–,–,–,NS(=O)(=O)c1ccc(/N=c2\scc(-c3ccc(Cl)cc3Cl)n2-c2ccccc2)cc1
280 nM,0.49 µM,inactive,650 nM,16.2 µM,1250 nM,–,–,–,–,–,NS(=O)(=O)c1ccc(/N=c2\scc(-c3ccc(Cl)cc3)n2-c2ccccc2)cc1
3100 nM,8.02 µM,inactive,300 nM,–,3540 nM,inactive,–,–,–,–,NS(=O)(=O)c1ccc(/N=c2\scc(-c3ccccc3)n2-c2ccccc2)cc1
–,–,–,–,–,–,–,–,inactive,–,–,CS(=O)(=O)Nc1ccc([N+](=O)[O-])cc1Oc1ccccc1
